From patent US7439207B2, “2,6 substituted pyridine-3-carbonyl derivatives serving as plant protection agents having herbicidal action” (Bayer CropScience AG, priority 2002, dated 2008)

Assays:
[1] = logP determination by HPLC on reversed-phase column (C 18), EEC Directive 79/831 Annex V.A8; type: physicochemical; details: reversed-phase HPLC column (C 18); printed in text without mark a) or b)
Description: The logP values given in the table were determined in accordance with EEC Directive 79/831 Annex V.A8 by HPLC (High Performance Liquid Chromatography) using a reversed-phase column (C 18). Temperature: 43° C. (a) Mobile phases for the determination in the acidic range: 0.1% aqueous phosphoric acid, acetonitrile; linear gradient from 10% acetonitrile to 90% acetonitrile—corresponding measurement results in Table 1 are marked ^a). (b) Mobile phases for the determination in the neutral range: 0.01 molar aqueous phosphate buffer solution, acetonitrile; linear gradient from 10% acetonitrile to 90% acetonitrile—corresponding measurement results in Table 1 are marked ^b). Calibration was carried out using unbranched alkan-2-ones (having 3 to 16 carbon atoms) with known logP values (determination of the logP values by the retention times using linear interpolation between two successive alkanones).

weeds [2] = assay: Pre-emergence test (Example A), activity against weeds; type: in vivo; details: soil sprayed 24 hours after sowing, rated after three weeks
Description: Pre-Emergence Test • Solvent: 5 parts by weight of acetone • Emulsifier: 1 part by weight of alkylaryl polyglycol ether
(§1) To produce a suitable preparation of active compound, 1 part by weight of active compound is mixed with the stated amount of solvent, the stated amount of emulsifier is added and the concentrate is diluted with water to the desired concentration.
Seeds of the test plants are sown in normal soil. After 24 hours, the soil is sprayed with the preparation of active compound such that the particular amount of active compound desired is supplied per unit area. The concentration of active compound in the spray liquor is chosen such that the particular amount of active compound desired is applied in 1000 litres of water per hectare.
After three weeks, the degree of damage to the plants is rated in % damage in comparison to the development of the untreated control. The figures denote: • 0%=no effect (like untreated control) • 100%=total destruction

weeds [3] = assay: Post-emergence test (Example B), activity against weeds; type: in vivo; details: test plants of 5-15 cm sprayed, rated after three weeks
Description: Post-Emergence Test • Solvent: 5 parts by weight of acetone • Emulsifier: 1 part by weight of alkylaryl polyglycol ether
as §1
Test plants of a height of 5-15 cm are sprayed with the preparation of active compound such that the particular amounts of active compound desired are applied per unit area. The concentration of the spray liquor is chosen such that the particular amounts of active compound desired are applied in 1 000 1 l of water/ha.
After three weeks, the degree of damage to the plants is rated in % damage in comparison to development of the untreated control.
The figures denote: • 0%=no effect (like untreated control) • 100%=total destruction

SMILES | chromatographic logP [1] | activity against weeds (weeds [2]) | activity against weeds (weeds [3])
CN1CCN(Cc2nc(C(F)(F)F)ccc2C(=O)C2C(=O)CCCC2=O)C1=O [Example 1, 2-[2-(3-methyl-2-oxoimidazolidin-1-ylmethyl)-6-trifluoromethylpyridine-3-carbonyl]cyclohexane-1,3-dione] | 2.14 | strong activity | strong activity
CN1CCN(Cc2nc(C(F)(F)F)ccc2C(=O)O)C1=O [Example II-1, 6-trifluoromethyl-2-(3-methyl-2-oxoimidazolidin-1-ylmethyl)nicotinic acid] | 1.62 | – | –
